Source: patent US7429599B2, “Methods for treating or preventing an inflammatory or metabolic condition or inhibiting JNK” (Signal Pharmaceuticals, LLC, priority 2000, dated 2008)
Structures can show the parent of a compound that is named as a salt.

Target: T1, His6-JNK2 (Homo sapiens, UniProt P45984)
T1 construct: His6 (N)
Assay: JNK2 Assay (c-Jun phosphorylation, 32P-ATP filter plate)
Assay type: biochemical
Conditions: c-Jun phosphorylation reduced to 50% of control; GST-c-Jun(1-79), 11 μM ATP; read-out: IC50 value in the JNK2 Assay
Protocol: To 10 μL of the test compound in 20%/DMSO/80% dilutien buffer consisting of 20 mM HELPS (pH 7.6), 0.1 mM; EDTA, 2.5 mM magnesium chloride, 0.004% Triton×100, 2 μg/mL leupeptin, 20 mM β-glycerolphosphate, 0.1 mM sodium vanadate, and 2 mM DTT in water is added 30 μL of 50 ng His6-JNK2 in the same dilution buffer. The mixture is preincubated for 30 minutes at room temperature. Sixty microliter of 10 μg GST-c-Jun(1-79) in assay buffer consisting of 20 mM HEPES (pH 7.6), 50 mM sodium chloride, 0.1 mM EDTA, 24 mM magnesium chloride, 1 mM DTT, 25 mM PNPP, 0.05% Triton×100, 11 μM ATP, and 0.5 μCi γ-^32P ATP in water is added and the reaction is allowed to proceed for 1 hour at room temperature. The c-Jun phosphorylation is terminated by addition of 150 μL of 12.5% trichloroacetic acid. After 30 minutes, the precipitate is harvested onto a filter plate, diluted with 50 μL of the scintillation fluid and quantified by a counter. The IC50 values are calculated as the concentration of the test compound at which the c-Jun phosphorylation is reduced to 50% of the control value.

T1 sequence (P45984 whole entry): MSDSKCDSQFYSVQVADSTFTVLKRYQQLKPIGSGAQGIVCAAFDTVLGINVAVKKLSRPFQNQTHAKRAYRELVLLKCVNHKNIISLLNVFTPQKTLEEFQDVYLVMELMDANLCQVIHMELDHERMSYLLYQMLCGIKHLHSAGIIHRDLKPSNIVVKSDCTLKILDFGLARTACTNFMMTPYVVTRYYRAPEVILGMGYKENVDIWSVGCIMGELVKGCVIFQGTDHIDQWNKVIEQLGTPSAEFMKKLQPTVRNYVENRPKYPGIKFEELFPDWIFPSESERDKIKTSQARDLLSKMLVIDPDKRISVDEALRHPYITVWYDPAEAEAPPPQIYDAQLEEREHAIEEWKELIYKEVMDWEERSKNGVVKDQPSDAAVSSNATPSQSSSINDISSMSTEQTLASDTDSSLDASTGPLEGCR

Row | IC50 [µM] | Structure (SMILES)
1 | ≤ 10 | CN1CCN(S(=O)(=O)c2ccc(-c3ccnc(Nc4ccc(C(N)=O)cc4)n3)cc2)CC1 [Compound 3-17]
2 | ≤ 10 | O=C(c1ccc(Nc2nccc(-c3ccc(Cl)cc3)n2)cc1)N1CC=CCC1 [Compound 17-144]
3 | ≤ 1 | CC(C)NC(=O)CN1CCN(C(=O)c2ccc(Nc3nccc(-c4ccc(SCCCO)cc4)n3)cc2)CC1 [Compound 17-32]
4 | ≤ 10 | CN(CCc1ccccn1)C(=O)c1ccc(Nc2nccc(-c3ccc(Cl)cc3)n2)cc1 [Compound 17-151]
5 | ≤ 1 | O=C(c1ccc(Nc2nccc(-c3ccc(Cl)cc3)n2)cc1)N1CCC(N2CCCC2)CC1 [Compound 17-171]
6 | ≤ 10 | NC(=O)c1ccc(Nc2nccc(-c3ccc4ccccc4c3)n2)cc1 [Compound 3-34]
7 | ≤ 1 | O=C(c1ccc(Nc2nccc(-c3ccc(Cl)cc3)n2)cc1)N1CCNCC1 [Compound 18, 4-{[4-(4-Chlorophenyl)pyrimidin-2-yl]amino}benzoic acid piperazine amide hydrochloride]
8 | ≤ 10 | CN1CCN(CCCNC(=O)c2ccc(Nc3nccc(-c4ccc(Cl)cc4)n3)cc2)CC1 [Compound 17-164]
9 | ≤ 1 | C[C@@H]1CN(C(=O)c2ccc(Nc3nccc(-c4ccc(Cl)cc4)n3)cc2)C[C@H](C)N1 [Compound 17-190]
10 | ≤ 1 | NC(=O)c1ccc(Nc2nccc(-c3ccc(S(=O)(=O)CCCO)cc3)n2)cc1 [Compound 3-15]
11 | ≤ 10 | CN(Cc1ccccc1)C(=O)c1ccc(Nc2nccc(-c3ccc(Cl)cc3)n2)cc1 [Compound 17-157]
12 | ≤ 10 | CCN(CC)C(=O)C1CCCN(C(=O)c2ccc(Nc3nccc(-c4ccc(Cl)cc4)n3)cc2)C1 (stereo not shown) [Compound 17-130]
13 | ≤ 10 | O=C(NCCCCO)c1ccc(Nc2nccc(-c3ccc(Cl)cc3)n2)cc1 [Compound 17-106]
14 | ≤ 10 | O=C(NCCCO)c1ccc(Nc2nccc(-c3ccc(Cl)cc3)n2)cc1 [Compound 17-25]
15 | ≤ 10 | CC(=O)N1CCCN(C(=O)c2ccc(Nc3nccc(-c4ccc(Cl)cc4)n3)cc2)CC1 [Compound 17-160]
16 | ≤ 10 | O=C(NCCCN1CCCCC1)c1ccc(Nc2nccc(-c3ccc(Cl)cc3)n2)cc1 [Compound 17-23]
17 | ≤ 1 | CN(C)CCNC1CCN(C(=O)c2ccc(Nc3nccc(-c4ccc(Cl)cc4)n3)cc2)CC1 [Compound 22-10]
18 | ≤ 1 | NC(=O)c1ccc(Nc2nccc(-c3ccccc3)n2)cc1 [Compound 3-4]
19 | ≤ 1 | CC(=O)N1CCN(C(=O)c2ccc(Nc3nccc(-c4ccc(SCCCO)cc4)n3)cc2)CC1 [Compound 17-33]
20 | ≤ 10 | CC(=O)N(C)C1CCN(C(=O)c2ccc(Nc3nccc(-c4ccc(Cl)cc4)n3)cc2)C1 (stereo not shown) [Compound 17-163]
21 | ≤ 10 | O=C(NCCc1ccccn1)c1ccc(Nc2nccc(-c3ccc(Cl)cc3)n2)cc1 [Compound 17-118]
22 | ≤ 1 | CN(C)C(=O)c1ccc(Nc2nccc(-c3ccc(SCCCO)cc3)n2)cc1 [Compound 17-31]
23 | ≤ 1 | CN(C)c1ccc(-c2ccnc(Nc3ccc(C(N)=O)cc3)n2)cn1 [Compound 3-25]

Row | IC50 [µM] | Structure (SMILES)
24 | ≤ 10 | CN1CCC(S(=O)(=O)c2ccc(-c3ccnc(Nc4ccc(C(N)=O)cc4)n3)cc2)CC1 [Compound 3-16]
25 | ≤ 1 | COc1ccc(-c2ccnc(Nc3ccc(C(N)=O)cc3)n2)cn1 [Compound 3-24]
26 | ≤ 10 | O=C(c1ccc(Nc2nccc(-c3ccc(Cl)cc3)n2)cc1)N1CCC(c2ccccc2)CC1 [Compound 17-140]
27 | ≤ 10 | CN(C)C(=O)c1ccc(Nc2nccc(-c3ccc(Cl)cc3)n2)cc1 [Compound 17-2]
28 | ≤ 10 | O=C(c1ccc(Nc2nccc(-c3ccc(Cl)cc3)n2)cc1)N1CCN(C(=O)c2ccco2)CC1 [Compound 17-159]
29 | ≤ 1 | NC(=O)c1ccc(Nc2nccc(-c3ccc(SCCCO)cc3)n2)cc1 [Compound 3-14]
30 | ≤ 1 | NC(=O)c1ccc(Nc2nccc(-c3cccs3)n2)cc1 [Compound 3-2]
31 | ≤ 10 | Cc1cnc(Nc2ccc(C(N)=O)cc2)nc1-c1ccc(Cl)cc1 [Compound 3-37]
32 | ≤ 10 | CCCNC(=O)c1ccc(Nc2nccc(-c3ccc(Cl)cc3)n2)cc1 [Compound 17-132]
33 | ≤ 1 | CCOC(=O)N1CCN(C(=O)c2ccc(Nc3nccc(-c4ccc(Cl)cc4)n3)cc2)CC1 [Compound 17-137]
34 | ≤ 10 | CN(C)C(=O)c1ccc(Nc2nccc(-c3ccc(Br)cc3)n2)cc1 [Compound 17-18]
35 | ≤ 10 | NC(=O)c1ccc(Nc2nccc(-c3ccc(N4CCCCC4)cc3)n2)cc1 [Compound 3-26]
36 | ≤ 1 | O=C(c1ccc(Nc2nccc(-c3ccc(S(=O)(=O)c4ccncc4)cc3)n2)cc1)N1CCN(C(=O)c2ccco2)CC1 [Compound 17-30]
37 | ≤ 10 | COC(=O)CNC(=O)c1ccc(Nc2nccc(-c3ccc(Cl)cc3)n2)cc1 [Compound 17-91]
38 | ≤ 1 | CCN(Cc1ccncc1)C(=O)c1ccc(Nc2nccc(-c3ccc(Cl)cc3)n2)cc1 [Compound 17-147]
39 | ≤ 10 | CN(C)C(=O)NC1CCN(C(=O)c2ccc(Nc3nccc(-c4ccc(Cl)cc4)n3)cc2)CC1 [Compound 20-5]
40 | ≤ 1 | O=C(NCCCn1ccnc1)c1ccc(Nc2nccc(-c3ccc(Cl)cc3)n2)cc1 [Compound 17-21]
41 | ≤ 10 | CNC(=O)c1ccc(Nc2nccc(-c3ccc(Cl)cc3)n2)cc1 [Compound 17-3]
42 | ≤ 1 | CN1CCN(C(=O)c2ccc(Nc3nccc(-c4ccc(Cl)cc4)n3)cc2)CC1 [Compound 17-127]
43 | ≤ 1 | CC(=O)N1CCN(C(=O)c2ccc(Nc3nccc(-c4ccc(S(=O)(=O)c5ccncc5)cc4)n3)cc2)CC1 [Compound 17-29]
44 | ≤ 10 | NC(=O)c1ccc(Nc2nccc(-c3ccc(N4CCOCC4)cc3)n2)cc1 [Compound 3-30]
45 | ≤ 10 | O=C(Nc1ccc2[nH]ncc2c1)c1ccc(Nc2nccc(-c3ccc(Cl)cc3)n2)cc1 [Compound 17-119]
46 | ≤ 10 | CCN1CCN(C(=O)c2ccc(Nc3nccc(-c4ccc(Cl)cc4)n3)cc2)CC1 [Compound 17-35]

Row | IC50 [µM] | Structure (SMILES)
47 | ≤ 10 | O=C(c1ccc(Nc2nccc(-c3ccc(Cl)cc3)n2)cc1)N1CCC[C@@H]1CO [Compound 17-27]
48 | ≤ 1 | COCCNC(=O)c1ccc(Nc2nccc(-c3ccc(Cl)cc3)n2)cc1 [Compound 17-24]
49 | ≤ 1 | O=C(c1ccc(Nc2nccc(-c3ccc(Cl)cc3)n2)cc1)N1CCC(NCCO)CC1 [Compound 22-11]
50 | ≤ 10 | COCC(=O)NC1CCN(C(=O)c2ccc(Nc3nccc(-c4ccc(Cl)cc4)n3)cc2)CC1 [Compound 20-6]
51 | ≤ 10 | O=C(c1ccc(Nc2nccc(-c3ccc(Cl)cc3)n2)cc1)N1CCN(Cc2ccc3c(c2)OCO3)CC1 [Compound 17-128]
52 | ≤ 10 | O=C(c1ccc(Nc2nccc(-c3ccc(Cl)cc3)n2)cc1)N1CCOCC1 [Compound 17-133]
53 | ≤ 10 | CN(C)CCN(Cc1ccccc1)C(=O)c1ccc(Nc2nccc(-c3ccc(Cl)cc3)n2)cc1 [Compound 17-150]
54 | ≤ 10 | NC(=O)c1ccc(Nc2nccc(-c3ccc(SCCCN4CCOCC4)cc3)n2)cc1 [Compound 3-10]
55 | ≤ 10 | NC(=O)c1ccc(Nc2nccc(-c3ccc(-n4ccnc4)cc3)n2)cc1 [Compound 3-36]
56 | ≤ 1 | CC(C)NC(=O)CN1CCN(C(=O)c2ccc(Nc3nccc(-c4ccc(Cl)cc4)n3)cc2)CC1 [Compound 17-141]
57 | ≤ 10 | CN(C)c1ccc(-c2ccnc(Nc3ccc(C(N)=O)cc3)n2)cc1 [Compound 3-29]
58 | ≤ 1 | CCC(=O)N1CCN(C(=O)c2ccc(Nc3nccc(-c4ccc(Cl)cc4)n3)cc2)CC1 [Compound 17-37]
59 | ≤ 1 | NC(=O)c1ccc(Nc2nccc(-c3ccc(S(=O)(=O)c4cccnc4)cc3)n2)cc1 [Compound 3-13]
60 | ≤ 1 | NC(=O)c1ccc(Nc2nccc(-c3ccc(S(=O)(=O)c4ccccn4)cc3)n2)cc1 [Compound 3-9]
61 | ≤ 10 | NC(=O)c1ccc(Nc2nccc(-c3ccc(Br)cc3)n2)cc1 [Compound 3-22]
62 | ≤ 10 | CN(C)CCCSc1ccc(-c2ccnc(Nc3ccc(C(N)=O)cc3)n2)cc1 [Compound 3-11]
63 | ≤ 1 | O=C(NC1CCN(C(=O)c2ccc(Nc3nccc(-c4ccc(Cl)cc4)n3)cc2)CC1)N1CCOCC1 [Compound 20-4]
64 | ≤ 10 | O=C(NCCN1CCOCC1)c1ccc(Nc2nccc(-c3ccc(Cl)cc3)n2)cc1 [Compound 17-142]
65 | ≤ 1 | CC(=O)NCCNC(=O)c1ccc(Nc2nccc(-c3ccc(Cl)cc3)n2)cc1 [Compound 17-22]
66 | ≤ 10 | CC(=O)c1ccc(N2CCN(C(=O)c3ccc(Nc4nccc(-c5ccc(Cl)cc5)n4)cc3)CC2)cc1 [Compound 17-134]
67 | ≤ 10 | CC(O)CNC(=O)c1ccc(Nc2nccc(-c3ccc(Cl)cc3)n2)cc1 (stereo not shown) [Compound 17-26]
